Laboratory results published in US12064507B2, “Composition and method for oral treatment of leukemia” (Provectus Pharmatech, Inc., priority 2019, dated 2024).
Where two headings read alike, the source gives them in different places. Where a SMILES comes first, the peptide text is derived from it. [ ]: non-standard residue; d: D form. The star is where a group is joined. Dolaproine = CO[C@@H]([C@@H]1CCCN1)[C@@H](C)C(=O)O; Dil = CC[C@H](C)[C@H](NC)[C@@H](CC(=O)O)OC; X1 = C[C@@H](N*)[C@@H](O)c1ccccc1; NMeV = CN[C@H](C(=O)O)C(C)C

What was measured:
[1] = test system: SEM cells (human ALL cells labelled with GFP); assay: survival of CB17 SCID mice with SEM leukemia xenograft, oral treatment; assay type: in vivo; details: for survival / therapeutic activity in words: oral gavage twice weekly for two weeks, FIG. 1
Procedure: FIG. 1 is a graph showing survival of CB17 SCID mice from Charles River Laboratories International, Inc., treated with orally-administered rose bengal disodium. Exponentially-growing SEM cells (2.5×10^6 human ALL cells labelled with GFP) were injected intravenously into each animal and the establishment of tumors was monitored. After 4 weeks to permit the growth of the tumor, mice were randomized to three groups. Group 1 (n=9 control animals) received 100 μL of PBS given orally twice a week for two weeks. Group 2 (n=8 treatment Cohort I animals) received 25 μL of rose bengal disodium present at 10% w/v in 0.9% NaCl aqueous solution that was diluted in PBS to a final volume of 100 μL and given orally twice a week for 2 weeks. Group 3 (n=8 treatment Cohort II animals) received 12.5 μL of the above 10% w/v in 0.9% NaCl aqueous solution that was diluted in PBS to a final volume of 100 μL and administered orally twice a week for 2 weeks. […] Data are presented as Kaplan-Meier estimates.
Female C17 SCID mice from Charles River
The SEM cell line was initially established from a 5 year old female with B acute lymphoblastic leukemia. It carries the MLL-AFFF1 gene fusion and heterozygous for CDKN2A and TP53.
2.5×10^6 exponentially growing SEM cells [labelled with green fluorescent protein (GFP)] were injected intravenously into each animal and the establishment of tumors was monitored. After 4 weeks to permit the growth of the tumors, mice were randomized to three groups.
These animals received 100 μL of PBS given orally twice a week for two weeks.
These animals received 25 μL of PV-10® (10% rose bengal disodium w/v in 0.9 percent in aqueous saline) diluted in PBS to a final volume of 100 μL and given orally by gavage twice a week for 2 weeks.
These animals received 12.5 μL of PV-10® (as discussed above) diluted in PBS to a final volume of 100 μL and given orally by gavage twice a week for 2 weeks.
Data are presented in FIG. 1 as Kaplan-Meier estimates.

[2] = oral bioavailability, mass balance studies; assay type: in vivo; details: aqueous solution, estimated from mass balance studies
Procedure: Bioavailability of RB disodium administered in aqueous solution via the oral route appears to be limited based on mass balance studies conducted by the inventors, and can be estimated at 0.1-1 percent, corresponding to a daily systemic exposure of 0.2-2 mg/kg. Presuming this amount is distributed through the bloodstream, and that blood volume comprises approximately 10 percent of body weight, this equates to an estimated concentration of 2-20 μM RB in the blood.

[3] = oral bioavailability, radiolabel studies with 14C-RB; assay type: in vivo; details: 14C-RB in aqueous solution given orally to mice
Text: The bioavailability of various HX compounds such as disodium rose bengal has not been well characterized. Studies commissioned by one of the assignees concluded that bioavailability of disodium rose bengal is less than (<) 1% based on radiolabel studies where ^14C-RB in aqueous solution was given orally to mice. In the stomach, with a pH value<4, an HX compound is likely to be in the lactone form.

[4] = solubility and behaviour of HX compound forms in aqueous media; assay type: physicochemical; details: solutions of disodium RB mixed in
Text: The dibasic salt forms of the HX compounds exist in solution having a pH greater than approximately 5, whereas at pH values<5 the HX compounds spontaneously convert to their lactone form. […] Thus, optimizing formulation to properly compensate for the pH value of the GI tract is perhaps the most important parameter affecting bioavailability. For example, in the stomach, where pH value<4, dissolved HX compound is rapidly converted to the insoluble lactone form.
For example, the highly acidic gastric environment (pH 1.5-2 in the fasted state; pH 3-6 in the fed state) rises rapidly to about pH 6 in the duodenum and increases along the small intestine to pH 7.4 at the terminal ileum. The pH value in the cecum drops just below pH 6 and again rises in the colon reaching pH 6.7 at the rectum [Hua, Front Pharmacol 11:Article 524 (April 2020)].

[5] = test system: Apc^Min colorectal tumor model; assay type: in vivo, mice
Procedure: 26, 2021. […] Presuming a daily drinking water consumption rate of approximately 2 mL/10 g body weight, this corresponds to consumption of approximately 2 mg RB/10 g (200 mg/kg).
Those Apc^min mice are understood to have thereby consumed approximately 8 mg/10 g/day=800 mg/kg/day. That amount is consistent with toxicology data showing such a dose is tolerated.

[6] = tolerated dose in clinical studies of PV-10; assay type: in vivo, human
Procedure: The classic intravenous (IV) diagnostic assay for liver function using RB was conducted giving 100 mg RB as a single IV dose. In clinical studies of PV-10® aqueous RB disodium solution, RB has been tolerated at 1500 mg delivered IV. The standard adult blood volume is approximately 5 L. Thus, to achieve 100 mg/L in the blood, an adult patient would need to receive approximately 500 mg of RB IV to achieve the IC50 value in the bloodstream.
In clinical studies of PV-10® aqueous RB disodium solution, RB has been tolerated at 1500 mg delivered IL.

[7] = clearance from circulation; cited from earlier work
[8] = fed ad libitum continuously for 2 years, C57BL6N mice; cited from earlier work
[9] = 112 mg bolus, 60 kg adult human, 1.9 mg/kg; cited from earlier work
[10] = cited from earlier work
[11] = test system: solid tumors (e.g., melanoma, hepatocellular carcinoma, breast carcinoma); details: intralesional, intratumoral RB about 25-50 mg/g tumor tissue (25-50 mM); cited from earlier work
[12] = test system: pediatric solid tumors (neuroblastoma and neuroepithelioma); details: in vitro contact for 96 hours; cited from earlier work
[13] = test system: several cancer cell lines; details: cited from earlier work
[14] = nude mice; cited from earlier work
[15] = human, in vivo; cited from earlier work
[16] = symptomatic mice, 1 mg/mL ad libitum in drinking water

## O=C([O-])c1c(Cl)c(Cl)c(Cl)c(Cl)c1-c1c2cc(I)c(=O)c(I)c-2oc2c(I)c([O-])c(I)cc12.[Na+].[Na+] [RB disodium, 4,5,6,7-tetrachloro-2′,4′,5′,7′-tetraiodofluorescein disodium]
[1]; lesser amounts of HX compound (Cohort II, 12.5 μL PV-10), compared with the 62.5% group
  survival of mice treated with lesser amounts: much poorer survival rates
[1]; oral gavage twice a week for 2 weeks, higher-dose group (Cohort I, 25 μL PV-10)
  treated leukemic mice that survived for 120 days: 62.5%
[1]; two treatment groups
  survival / therapeutic activity in words: dose-dependent survival
[2]
  bioavailability via the oral route: 0.1-1%
[3]
  bioavailability: < 1%
[4]
  behaviour in water solution having the pH value of the human stomach: rapid clouding of the admixture and clumping

## O=C1OC2(c3cc(I)c(O)c(I)c3Oc3c2cc(I)c(O)c3I)c2c(Cl)c(Cl)c(Cl)c(Cl)c21 [RB, 4,5,6,7-tetrachloro-2′,4′,5′,7′-tetraiodofluorescein]
[1]; assuming 1% bioavailability, intestinal transit 6 hours, blood volume 10 percent of body weight, two treatment groups
  estimated RB in the blood: 125 to 250 µM
[1]; two treatment groups
  survival / therapeutic activity in words: therapeutic activity was observed
[5]; 4 mg/mL ad libitum in drinking water (about 800 mg/kg/day)
  effect on onset of disease: arrested onset of disease
[5]; mouse, in vivo
  estimated concentration of RB in the blood: 2 to 20 µM
[5]; [16]
  increase in mean survival relative to untreated mice: ~38%
  mean survival: 12.3±0.5 weeks
[6]; delivered IL
  dose tolerated: 1500 mg
[6]; delivered IV
  dose tolerated: 1500 mg
[7]
  circulatory half-time (t1/2): about 30 minutes
[8]
  dose well tolerated: 970 mg/kg/day
[9]
  morbidity after IV bolus: not reported to yield morbidity
[10]
  pKa value: 2.52
[10]; second value
  pKa value: 1.81
[11]
  time until acute tumor cytotoxicity is evident: ≤ 30 min
[12]
  concentrations demonstrating cytotoxicity: 50 to 100 µM

## CC[C@H](C)[C@@H]([C@@H](CC(=O)N1CCC[C@H]1[C@H](OC)[C@@H](C)C(=O)N[C@H](C)[C@@H](O)c1ccccc1)OC)N(C)C(=O)[C@@H](NC(=O)[C@@H](NC)C(C)C)C(C)C [monomethyl auristatin] (H-[NMeV]V[Dil][Dolaproine]-X1)
[13]
  IC50: < 1 nM

## Calicheamicin
[14]
  LD50: 0.32 mg/kg

## ipilimumab: anti-CTLA-4 monoclonal antibody, immune checkpoint inhibitor
[15]
  terminal t1/2: 15.4 days
